{"source": "patent US20230257484A1", "about": "“DENDROBIUM OFFICINALE OLIGOSACCHARIDE, DENDROBIUM OFFICINALE OLIGOSACCHARIDE DERIVATIVE AND PREPARATION METHOD AND USE THEREOF” (KUNMING INSTITUTE OF BOTANY, CHINESE ACADEMY OF SCIENCES, priority 2021, published 2023)", "key": {"[1]": {"assay": "DPPH free radical scavenging", "format": "biochemical", "experimental": "Experiment on the DPPH Free Radical Scavenging\nDPPH, water-soluble vitamin E (Trolox) (Trolox dissolved in absolute ethanol, with a concentration of 10 mM, stored at −20° C.), pure water.\nThe drug to be tested was mixed with DPPH (a final concentration of 100 µM) and reacted at 30° C. for 1 h. 3 repeating wells were set, and a blank control well without drug and a Trolox positive control well were set at the same time. The OD value was measured by a microplate reader with a detection wavelength of 515 nm, and the anti-oxidation rate was calculated.\nAnti-oxidation rate (%)=(1−experimental well OD515nm/blank well OD515nm)×100%."}, "[2]": {"biological_target": "porcine pancreatic elastase (Sus scrofa, UniProt P00772)", "sequence (P00772 27-266)": "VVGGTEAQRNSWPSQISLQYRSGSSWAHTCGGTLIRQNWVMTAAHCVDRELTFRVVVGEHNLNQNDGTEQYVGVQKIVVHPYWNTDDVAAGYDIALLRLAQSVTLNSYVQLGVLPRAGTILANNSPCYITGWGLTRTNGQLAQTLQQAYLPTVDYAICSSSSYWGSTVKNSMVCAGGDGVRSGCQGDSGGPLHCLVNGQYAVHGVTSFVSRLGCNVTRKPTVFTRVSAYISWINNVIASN", "assay": "Elastase inhibition rate", "format": "biochemical", "experimental": "Experiment on the Elastase Inhibition Rate\nSample, positive control of catechin, Tris, HCl, porcine pancreatic elastase, N-succinyl-alanine-alanine-alanine-p-nitroaniline, DMSO.\nPreparation of a sample solution: 1 mg/mL sample solution was prepared (pure water or a buffer solution was used for preparation, and if insoluble in water or the buffer solution, the sample was firstly dissolved with DMSO, and then water or the buffer solution was added. In principle, the content of DMSO should not exceed 5%).\nPreparation of a positive control: 1 mg/mL catechin;\nPreparation of a buffer solution: 0.1 M of Tris-HCl buffer solution, PH=8.0;\nPreparation of a reaction substrate solution: N-succinyl-alanine-alanine-alanine-p-nitroaniline (AAAPVN) solution (2 mM);\nPreparation: 28.5 μL of porcine pancreatic elastase solution (0.171 U/mL) was taken and dissolved in 10 mL of Tris-HCl buffer solution.\n(2) The solution of 50 μL of sample, 50 μL of porcine pancreatic elastase and 100 μL of reaction substrate was added to a 96-well plate.\n(3) After keeping at room temperature for 5 min, an absorbance at 420 nm was measured.\nElastase inhibition rate (%)=(1−sample OD420 nm/experimental well OD420 nm)×100%."}, "[3]": {"tested_on": "IL-6 secretion, RAW264.7 cells", "assay": "Immunomodulatory activity: IL-6 secretion by RAW264.7 cells (ELISA)", "format": "cell-based", "conditions": "for IL-6 pg/mL: RAW264.7, 24 h", "experimental": "(§1) Evaluation of the Immunomodulatory Activity of Dendrobium officinale Oligosaccharides RAW264.7 cells, TNF-α kit, IL-6 kit, distilled water. The logarithmic-growth RAW264.7 cells were taken and inoculated into 12-well plates after cell counting. The plate was placed in an incubator overnight, and then the cell supernatant was discarded. Different concentrations of Dendrobium officinale oligosaccharides, lipopolysaccharides and basal medium 1640 were added under aseptic operation, and the supernatant after 24 h of intervention was collected and stored at −20° C. for later use. The changes in TNF-α and IL-6 secretion were detected according to the instructions of the ELISA kit. The OD value was measured by a microplate reader with a detection wavelength of 450 nm. The OD value was substituted into the regression equation of the standard curve to calculate the increase rate of TNF-α and IL-6 secretion."}, "[4]": {"tested_on": "collagenase", "assay": "Collagenase inhibition rate", "format": "biochemical", "experimental": "Experiment on Collagenase Inhibition Rate\nProtease buffer solution, protease, protease substrate, inhibitor (1,10-Phenanthroline). All reagents were stored at −20° C.\na. Background blank well: 100 μL/well of protease buffer solution.\nb. Sample well: 100 μL, prepared into different concentrations.\nc. Positive control well: 10 μL of protease+90 μL of protease buffer solution.\n(3) After adding reagents according to the above groups, 100 μL of collagenase reaction mixture was added to each well, incubated in the dark, and then the OD value at 345 nm was measured.\nThe incubation time depended on the activity of the sample to be tested, and the low activity sample could be incubated for 1-3 h.\nCollagenase inhibition rate (%)=(ODbackground well−ODsample well)/(ODbackground well−ODpositive control well)."}, "[5]": {"tested_on": "secretion of hyaluronic acid, Hacat cells", "assay": "Promoting secretion of hyaluronic acid in Hacat cells (ELISA)", "format": "cell-based, human", "conditions": "for Secretion of hyaluronic acid: Hacat cells, 24 h", "experimental": "Experiment on Promoting Secretion of Hyaluronic Acid\nHuman immortalized […] (Hacat cells), human hyaluronic acid Elisa kit, distilled water.\nA 96-well plate was inoculated with […] of cell suspension per well, and a concentration of the suspension was 4×10^5 cells/mL. After 24 h of incubation, the original culture medium was discarded, then the cells were washed with PBS for 1-2 times and the serum-free medium containing different concentrations of the drug to be tested was added thereto, and continued to incubate for 24 h. A blank control without drugs and a TGF-β positive control were set. Then the cells were lysed with ripa lysis buffer solution containing 1% PMSF, the supernatant after centrifugation was taken, and the secretion of hyaluronic acid was detected according to the method provided in the […]. The OD value was measured by a microplate reader with a detection wavelength of 450 nm. The OD value was substituted into the regression equation of the standard curve to calculate the increase rate of the secretion of hyaluronic acid."}, "[6]": {"tested_on": "Hacat cells", "assay": "Survival of Hacat cells", "format": "cell-based, human"}, "[7]": {"tested_on": "RAW264.7 cells", "assay": "Survival of RAW264.7 cells", "format": "cell-based"}, "[8]": {"tested_on": "TNF-α secretion, RAW264.7 cells", "assay": "Immunomodulatory activity: TNF-α secretion by RAW264.7 cells (ELISA)", "format": "cell-based", "conditions": "for TNF-α: RAW264.7, 24 h", "experimental": "as §1"}, "[9]": {"conditions": "final reaction concentration 1%"}, "[10]": {"conditions": "final reaction concentration 4%"}, "[11]": {"conditions": "final reaction concentration 8%"}, "[12]": {"conditions": "final reaction concentration 11%"}, "[13]": {"conditions": "final reaction concentration 15%"}, "[14]": {"conditions": "final reaction concentration 20%"}}, "data": [{"compound": "Cc1c(C)c2c(c(C)c1O)CCC(C)(C(=O)O)O2", "note": "(stereo not shown) [Trolox, reference compound]", "values": [{"measurement": "Anti-oxidation rate (%)", "setting": "[1]; final reaction concentration 25 (unit not given), DPPH, 30° C., 1 h", "result": 95.668, "unit": "%"}]}, {"compound": "O=C(O[C@@H]1Cc2c(O)cc(O)cc2O[C@@H]1c1ccc(O)c(O)c1)c1cc(O)c(O)c(O)c1", "note": "[epicatechin gallate, reference compound]", "values": [{"measurement": "inhibition at 100 µg/mL", "setting": "[2]; final reaction concentration 100 μg/ml", "result": 68.5, "unit": "%"}]}, {"compound": "O=C(O)C1O[C@@H](O)C(O)C(O)[C@@H]1O[C@@H]1OC(CO)[C@@H](O[C@@H]2OC(CO)[C@@H](O[C@@H]3OC(CO)[C@@H](O[C@@H]4OC(CO)[C@H](O[C@@H]5OC(CO)[C@H](O)C(O)C5O)C(O)C4O)C(O)C3O)C(O)C2O)C(O)C1O", "note": "(stereo partly shown) [Dendrobium officinale oligosaccharide]", "values": [{"measurement": "secretion of IL-6 by RAW264.7 macrophages (in words)", "setting": "[3]; concentration of 50 μg/mL, equivalent to the positive control LPS", "result": "significantly increased"}, {"measurement": "IL-6 pg/mL", "setting": "[3]; final reaction concentration 50 μg/mL", "result": 1593.01, "unit": "pg/mL"}, {"measurement": "IL-6 pg/mL", "setting": "[3]; final reaction concentration 100 μg/mL", "result": 1376.42, "unit": "pg/mL"}, {"measurement": "IL-6 pg/mL", "setting": "[3]; final reaction concentration 200 μg/mL", "result": 1117.33, "unit": "pg/mL"}, {"measurement": "collagenase inhibition activity", "setting": "[4]; concentration of 0.4%-4%", "result": "> 50", "unit": "%"}, {"measurement": "Collagenase inhibition rate (%)", "setting": "[4]; final reaction concentration 0.4%", "result": 50.32, "unit": "%"}, {"measurement": "Collagenase inhibition rate (%)", "setting": "[4]; final reaction concentration 0.8%", "result": 63.63, "unit": "%"}, {"measurement": "Collagenase inhibition rate (%)", "setting": "[4]; [9]", "result": 72.20, "unit": "%"}, {"measurement": "Collagenase inhibition rate (%)", "setting": "[4]; final reaction concentration 2%", "result": 84.80, "unit": "%"}, {"measurement": "Collagenase inhibition rate (%)", "setting": "[4]; [10]", "result": 110.54, "unit": "%"}, {"measurement": "elastase inhibition activity", "setting": "[2]; concentration of 20%", "result": "> 10", "unit": "%"}, {"measurement": "Elastase inhibition rate %", "setting": "[2]; [10]", "result": "−2.135", "unit": "%"}, {"measurement": "Elastase inhibition rate %", "setting": "[2]; [11]", "result": 3.886, "unit": "%"}, {"measurement": "Elastase inhibition rate %", "setting": "[2]; [12]", "result": 8.417, "unit": "%"}, {"measurement": "Elastase inhibition rate %", "setting": "[2]; [13]", "result": 9.723, "unit": "%"}, {"measurement": "Elastase inhibition rate %", "setting": "[2]; [14]", "result": 15.827, "unit": "%"}, {"measurement": "activity to promote the secretion of hyaluronic acid", "setting": "[5]; concentration of 8%-20%", "result": "> 0.3", "unit": "ng/mL"}, {"measurement": "Secretion of hyaluronic acid", "setting": "[5]; [10]", "result": 0.2294, "unit": "ng/mL"}, {"measurement": "Secretion of hyaluronic acid", "setting": "[5]; [11]", "result": 0.5530, "unit": "ng/mL"}, {"measurement": "Secretion of hyaluronic acid", "setting": "[5]; [12]", "result": 0.3691, "unit": "ng/mL"}, {"measurement": "Secretion of hyaluronic acid", "setting": "[5]; [13]", "result": 0.4930, "unit": "ng/mL"}, {"measurement": "Secretion of hyaluronic acid", "setting": "[5]; [14]", "result": 0.5392, "unit": "ng/mL"}, {"measurement": "survival rate and survival time of cells", "setting": "[6]", "result": "increase the survival rate and survival time"}, {"measurement": "survival rate and survival time of cells", "setting": "[7]", "result": "increase the survival rate and survival time"}, {"measurement": "anti-oxidation rate", "setting": "[1]; concentration of 15%-20%", "result": "> 20", "unit": "%"}, {"measurement": "Anti-oxidation rate (%)", "setting": "[1]; [10]", "result": 11.335, "unit": "%"}, {"measurement": "Anti-oxidation rate (%)", "setting": "[1]; [11]", "result": 14.346, "unit": "%"}, {"measurement": "Anti-oxidation rate (%)", "setting": "[1]; [12]", "result": 16.213, "unit": "%"}, {"measurement": "Anti-oxidation rate (%)", "setting": "[1]; [13]", "result": 21.155, "unit": "%"}, {"measurement": "Anti-oxidation rate (%)", "setting": "[1]; [14]", "result": 25.217, "unit": "%"}, {"measurement": "secretion of TNF-α by RAW264.7 macrophages (in words)", "setting": "[8]; concentration of 3.125 μg/mL, equivalent to the positive control LPS", "result": "significantly increased"}, {"measurement": "TNF-α", "setting": "[8]; final reaction concentration 3.125 μg/mL", "result": 1062.29, "unit": "pg/mL"}, {"measurement": "TNF-α", "setting": "[8]; final reaction concentration 6.25 μg/mL", "result": 35.66, "unit": "pg/mL"}, {"measurement": "TNF-α", "setting": "[8]; final reaction concentration 12.5 μg/mL", "result": 53.86, "unit": "pg/mL"}]}, {"compound": "c1cnc2c(c1)ccc1cccnc12", "note": "[Positive inhibitor, 1,10-Phenanthroline, reference compound]", "values": [{"measurement": "Collagenase inhibition rate (%)", "setting": "[4]; [9]", "result": 102.23, "unit": "%"}]}]}
